Source: US5276139A, “Haptens useful in evaluating inhibition of PNN elastase by N-substituted azetidinones” (Merck & Co., Inc., priority 1991, dated 1994)

System: antibody R674
Experiment: Radioimmune assay: displacement of 3H-Compound A' or 3H-Compound B' from antibody R674
Format: binding, rabbit
Settings: up to 10 μM (the highest concentration tested)
Procedure: Non-antibody-bound radioactive isotope was removed from the reaction mixture by its absorption onto dextran-coated activated charcoal. […] The activated charcoal was then suspended to 3% (w/v) in PBS dextran and allowed to stand overnight, washed once again in PBS dextran and resuspended to 3% (w/v) in PBS dextran and stored at 4° C. Immediately before use in the assay, the dextran-coated activated charcoal was diluted 10-fold in DULBECCO's PBS and 1 ml was added to each assay tube. […] The supernatant fluid was decanted into 9 ml of AQUASOL-2 scintillation fluid and radioactivity counted in a beta-counter. Each assay contains charcoal free controls, to which 1 ml PBS was added, for determination of total counts (BO), and antibody free controls for determination of non-specific binding. Percent specific binding was determined by subtracting the value for non-specific binding from the value of total antiserum binding and then dividing by the total radioactivity added.
The antiserum was diluted in PET/GEL buffer (1:12,000 final dilution in the 200 μl assay volume) as described above so that it binds 20-30% of the total radioactivity added. The same diluted stock was then used for all assay tubes with-in the same assay. […] The assay was set up on a competition basis. The unlabeled reactivation product competed with the tritiated reactivation product for binding to the antibody R674. […]

| SMILES | effect on binding to antibody R674 |
| --- | --- |
| NC(N)=O [Urea] | without effect |
| N=C(N)NCCC[C@H](N)C(=O)O [arginine] | without effect |
